Assay results reported in patent publication US12065416B2, “cGAS antagonist compounds” (IMMUNESENSOR THERAPEUTICS, INC., priority 2016, dated 2024).

Experiments:
[1] = biological target: T1, recombinant cGAS (aa147-522) (Homo sapiens, UniProt Q8N884); assay: In vitro assay for inhibition of cGAS activity (ATP consumption, Kinase Glo); type: biochemical; settings: 37° C. 20 minutes, read-out: Activity (Inhibition of cGAS enzyme activity in vitro, IC50)
T1 construct: recombinant cGAS (aa147-522); His6-SUMO (N, cleaved yes); made in house; host or cells: E. coli BL21/pLys
Summary of the method: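 Human cGAS (aa147-522) at 1.5 ng/μL incubated with serially diluted compound at 37° C for 20 min; remaining ATP read by Kinase Glo luminescence. IC50 from percent ATP consumption plotted against log compound concentration.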

[2] = test system: cGAS activity in THP1 cells; assay: Cellular assay: ISRE-Gaussia luciferase reporter THP1 cells transfected with ISD (Interferon Stimulatory DNA); type: cell-based; settings: Homo sapiens, THP-1; ISRE-Gaussia luciferase reporter THP1 cells transfected with 2 μg/mL ISD, 16 hours; read-out: THP1-ISD (Inhibition of cGAS activity in THP1 cells, IC50)
Protocol: A reporter THP1 cell line harboring a gene encoding Gaussia Luciferase under the control of 5 tandem repeats of interferon-stimulated response elements (ISRE) was used to test inhibition of cGAS activity by synthetic compounds in human cells. These cells were plated on 96-well plates at 0.3×10^6/well and incubated with various concentrations of compounds or DMSO for 5 min, followed by transfection of 2 μg/mL of ISD (Interferon Stimulatory DNA, a 45 bp DNA oligo) or mock transfected using lipofectamine 2000 (Life Technology) method, according to manufacturer's instructions. 16 hours later, 15 μL of the media from each well is transferred to a new plate, 50 μL of solution containing 50 mM Hepes-NaOH, 50 mM NaCl, 10 mM EDTA, 1 μM of coeleanterazine was added to each well and luminescence was measured immediately. Fold increase in luminescence compared to mock transfection is plotted against concentrations of each compound, and IC50 is calculated using Graphpad. To evaluate the specificity of a compound, the same procedure was performed except that cells were transfected with 2 μg/mL poly(I:C) or infected with Sendai Virus (SeV) at 50 Unit/mL, which are known to activate the RIG-I-MAVS pathway. A specific inhibitory compound should inhibit interferon induction by DNA but have minimal effect on poly(I:C) or Sendai virus induced interferon reporter gene expression.

T1 sequence (Q8N884 147-522): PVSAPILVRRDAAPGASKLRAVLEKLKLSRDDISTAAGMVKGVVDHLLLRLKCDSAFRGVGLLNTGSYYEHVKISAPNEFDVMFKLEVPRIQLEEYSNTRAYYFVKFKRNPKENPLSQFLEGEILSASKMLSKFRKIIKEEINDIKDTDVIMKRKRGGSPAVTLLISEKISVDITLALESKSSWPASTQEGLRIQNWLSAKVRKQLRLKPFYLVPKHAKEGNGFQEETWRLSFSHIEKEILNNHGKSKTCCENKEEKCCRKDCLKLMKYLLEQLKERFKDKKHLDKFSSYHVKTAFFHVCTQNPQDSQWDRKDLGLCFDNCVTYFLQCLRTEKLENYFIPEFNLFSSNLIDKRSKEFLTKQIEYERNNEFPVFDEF

Row | Compound | IC50 [1] [nM] | IC50 [2] [nM]
1 | COc1cc(/C=C2\SC(=O)N(C)C2=O)c(Br)cc1NS(=O)(=O)c1ccccn1 [Ex21] | ≥ 10000 | 2500 to 10000
2 | CN1C(=O)S/C(=C\c2cc(OCc3cccc4[nH]ccc34)c(O)cc2Br)C1=O [Ex67] | 500 to 10000 | 2500 to 10000
3 | CCN1C(=O)S/C(=C\c2cc(OC)c(O)cc2Br)C1=O [Ex39] | 500 to 10000 | 2500 to 10000
4 | COc1cc(/C=C2\SC(=S)N(C)C2=O)c(Br)cc1O [Ex38] | ≤ 500 | 2500 to 10000
5 | CCOc1cc(/C=C2\Sc3ncccc3C2=O)c(Br)cc1O [Ex112] | ≤ 500 | 2500 to 10000
6 | CCOc1cc(/C=C2\SC(=O)N(C)C2=O)c(Br)cc1O [Ex32] | ≤ 500 | ≤ 2500
7 | C#CCOc1cc(/C=C2\SC(=O)N(C)C2=O)c(Br)cc1O [Ex33] | 500 to 10000 | 2500 to 10000
8 | COc1cc(/C=C2\Sc3ncccc3C2=O)c(Br)cc1O [Ex45] | ≤ 500 | 2500 to 10000
9 | COc1cc(/C=C2\SC(=O)N(C)C2=O)c(Cl)cc1O [Ex30] | ≤ 500 | ≤ 2500
10 | CN1C(=O)S/C(=C\c2cc(OCc3cccnc3)c(O)c(F)c2Br)C1=O [Ex106] | ≤ 500 | 2500 to 10000
11 | COc1cc(/C=C2\SC(=O)N(C)C2=O)c(Br)cc1NS(=O)(=O)c1cnc(N)s1 [Ex61] | 500 to 10000 | ≤ 2500
12 | CN1C(=O)S/C(=C\c2cc(OCCc3cnc(N)nc3)c(O)cc2Br)C1=O [Ex82] | ≤ 500 | ≤ 2500
13 | CN1C(=O)S/C(=C\c2cc(OCc3cccnc3)c(O)cc2Br)C1=O [Ex90] | ≤ 500 | 2500 to 10000
14 | COc1cc(/C=c2\sc3nccn3c2=O)c(Br)cc1O [Ex16] | ≤ 500 | 2500 to 10000
15 | COc1cc(/C=C2\Sc3ccccc3C2=O)c(Br)cc1O [Ex44] | 500 to 10000 | ≤ 2500
16 | O=C1/C(=C/c2cc(OCc3cccnc3)c(O)cc2Br)Sc2ncccc21 [Ex113] | ≤ 500 | 2500 to 10000

Other lines, results leading:

Row | IC50 [1] [nM] | IC50 [2] [nM] | Compound
17 | ≤ 500 | ≥ 10000 | CN1C(=O)S/C(=C\c2cc(OCc3cnc([S+](C)[O-])nc3N)c(O)c(F)c2Br)C1=O (centres unmarked) [ExA14]
18 | ≤ 500 | ≤ 2500 | Cc1nc(N)ncc1COc1cc(/C=C2\Sc3ncccc3C2=O)c(Br)cc1O [Ex116]
19 | 500 to 10000 | 2500 to 10000 | CN1C(=O)S/C(=C\c2cc(OCc3cnc(NCc4cccnc4)nc3)c(O)c(F)c2Br)C1=O [Ex189]
20 | 500 to 10000 | ≥ 10000 | CC(Oc1cc(/C=C2\SC(=O)N(C)C2=O)c(Br)c(F)c1O)c1cncnc1N (centres unmarked) [ExA18]
21 | 500 to 10000 | ≤ 2500 | Nc1ncc(COc2cc(/C=c3\sc4nccn4c3=O)c(Br)cc2O)cn1 [ExA11]
22 | ≤ 500 | 2500 to 10000 | Cc1ncc(COc2cc(/C=C3\SC(=O)N(C)C3=O)c(Br)c(F)c2O)c(N)n1 [ExA5]
23 | ≤ 500 | 2500 to 10000 | CC(Oc1cc(/C=C2\Sc3ncccc3C2=O)c(Br)cc1O)c1cnc(NCCO)nc1 (centres unmarked) [ExA9]
24 | 500 to 10000 | ≥ 10000 | CC(Oc1cc(/C=c2\sc3nccn3c2=O)c(Br)c(F)c1O)c1cnc(N)nc1 (centres unmarked) [ExA12]
25 | ≤ 500 | 2500 to 10000 | Cc1ncc(COc2cc(/C=C3\Sc4ncccc4C3=O)c(Br)cc2O)cn1 [Ex114]
26 | 500 to 10000 | 2500 to 10000 | CN1C(=O)S/C(=C\c2cc(OCC(=O)c3cnc(N)nc3)c(O)c(F)c2Br)C1=O [ExA10]
27 | ≤ 500 | 2500 to 10000 | O=C1/C(=C/c2cc(OCc3cnc(Cl)nc3)c(O)cc2Br)Sc2ncccc21 [Ex115]
28 | ≤ 500 | 2500 to 10000 | Nc1ncc(COc2cc(/C=C3\Sc4ncccc4C3=O)c(Br)cc2O)c(C2CC2)n1 [Ex117]
29 | ≤ 500 | 2500 to 10000 | CN1C(=O)S/C(=C\c2cc(OCc3cnc(Cl)nc3N)c(O)c(F)c2Br)C1=O [ExA19]
30 | ≤ 500 | 2500 to 10000 | CN1C(=O)S/C(=C\c2cc(OCc3cncnc3)c(O)c(F)c2Br)C1=O [Ex185]
31 | ≤ 500 | ≥ 10000 | CN1C(=O)S/C(=C\c2cc(OCc3cncnc3N)c(O)c(F)c2Br)C1=O [ExA17]
